Source: patent US12459922B2 (Gilead Sciences, Inc., priority 2022, dated 2025)

System: endogenous cellular STAT1 (phosphorylated at Tyr701) in NCI-H1373 cells
Test: Phospho-STAT1 (Tyr701) LANCE Ultra TR-FRET Detection Assay
Type: cell-based
Details: Homo sapiens, NCI-H1373, 48 h, phospho-STAT1 (Tyr701) induction, read-out: NH1373 pSTAT1 EC50

| Compound | EC50 [nM] |
| --- | --- |
| Nc1nc(-c2cc3ccn(C[C@@H]4COC[C@H](Nc5cn[nH]c(=O)c5C(F)(F)F)C4)c(=O)c3cc2F)ncc1C(F)(F)F [Example 230, 6-(4-amino-5-(trifluoromethyl)pyrimidin-2-yl)-7-fluoro-2-(((3R,5R)-5-((6-oxo-5-(trifluoromethyl)-1,6-dihydropyridazin-4-yl)amino)tetrahydro-2H-pyran-3-yl)methyl)isoquinolin-1(2H)-one] | 115 |
| C[C@@H](CCCn1ccc2cc(-c3ncc(C(F)(F)F)cc3Cl)c(F)cc2c1=O)Nc1cn[nH]c(=O)c1C(F)(F)F [Example 326, (S)-6-(3-chloro-5-(trifluoromethyl)pyridin-2-yl)-7-fluoro-2-(4-((6-oxo-5-(trifluoromethyl)-1,6-dihydropyridazin-4-yl)amino)pentyl)isoquinolin-1(2H)-one] | 113 |
| COc1cnc(-c2cc3ncn(CCC[C@H](C)Nc4cn[nH]c(=O)c4C(F)(F)F)c(=O)c3cc2F)nc1N [Example 66, 7-(4-amino-5-methoxy-pyrimidin-2-yl)-6-fluoro-3-[(4S)-4-[[6-oxo-5-(trifluoromethyl)-1H-pyridazin-4-yl]amino]pentyl]quinazolin-4-one] | 71.5 |
| O=c1[nH]ncc(N2CC3(CC3)C[C@H]2CCCn2ccc3cc(-c4ncc(C(F)(F)F)cn4)c(F)cc3c2=O)c1C(F)(F)F [Example 142, 7-fluoro-2-[3-[(6R)-5-[6-oxo-5-(trifluoromethyl)-1H-pyridazin-4-yl]-5-azaspiro[2.4]heptan-6-yl]propyl]-6-[5-(trifluoromethyl)pyrimidin-2-yl]isoquinolin-1-one] | 38.6 |
| O=c1[nH]ncc(NCCCCn2ccc3cc(-c4ncc(C(F)(F)F)cn4)c(F)c(F)c3c2=O)c1C(F)(F)F [Example 85, 7,8-difluoro-2-(4-((6-oxo-5-(trifluoromethyl)-1,6-dihydropyridazin-4-yl)amino)butyl)-6-(5-(trifluoromethyl)pyrimidin-2-yl)isoquinolin-1(2H)-one] | 113 |
| COc1cnc(-c2cc3ncn(CCC[C@H](C)Nc4cn[nH]c(=O)c4C(F)(F)F)c(=O)c3cc2F)nc1N1CCC1 [Example 188, (S)-7-(4-(azetidin-1-yl)-5-methoxypyrimidin-2-yl)-6-fluoro-3-(4-((6-oxo-5-(trifluoromethyl)-1,6-dihydropyridazin-4-yl)amino)pentyl)quinazolin-4(3H)-one] | 42 |
| C[C@@H](CCCn1ccc2cc(-c3ncc4c(n3)CS(=O)(=O)C4)c(F)cc2c1=O)Nc1cn[nH]c(=O)c1C(F)(F)F [Example 225, (S)-6-(6,6-dioxido-5,7-dihydrothieno[3,4-d]pyrimidin-2-yl)-7-fluoro-2-(4-((6-oxo-5-(trifluoromethyl)-1,6-dihydropyridazin-4-yl)amino)pentyl)isoquinolin-1(2H)-one] | 957 |
| [2H][C@](C)(CCCn1ccc2cc(-c3ncc(C(F)(F)F)cn3)c(F)c(F)c2c1=O)Nc1cn[nH]c(=O)c1C(F)(F)F (single isomer, unassigned) [Example 87] | 10000 |
| C[C@@H](CCCn1cnc2cc(-c3ncc4cc[nH]c4n3)c(F)cc2c1=O)Nc1cn[nH]c(=O)c1C(F)(F)F [Example 62, 6-fluoro-3-[(4S)-4-[[6-oxo-5-(trifluoromethyl)-1H-pyridazin-4-yl]amino]pentyl]-7-(7H-pyrrolo[2,3-d]pyrimidin-2-yl)quinazolin-4-one] | 31.3 |
| COc1cnc(-c2cc3ncn(CCC[C@H](C)Nc4cn[nH]c(=O)c4C(F)(F)F)c(=O)c3cc2F)nc1N1CC(C#N)C1 [Example 209] | 41.2 |
| O=c1[nH]ncc(O[C@H]2CCC[C@@H](Cn3ccc4cc(-c5ncc(C(F)F)cn5)c(F)cc4c3=O)C2)c1C(F)(F)F [Example 456, 6-(5-(difluoromethyl)pyrimidin-2-yl)-7-fluoro-2-(((1R,3S)-3-((6-oxo-5-(trifluoromethyl)-1,6-dihydropyridazin-4-yl)oxy)cyclohexyl)methyl)isoquinolin-1(2H)-one] | 48 |
| O=c1[nH]ncc(N[C@@H](CO)CCCn2cnc3cc(-c4ncc(C(F)(F)F)cn4)c(F)cc3c2=O)c1C(F)(F)F [Example 164, 6-fluoro-3-[(4R)-5-hydroxy-4-[[6-oxo-5-(trifluoromethyl)-1H-pyridazin-4-yl]amino]pentyl]-7-[5-(trifluoromethyl)pyrimidin-2-yl]quinazolin-4-one] | 219 |
| O=c1[nH]ncc(N[C@H](CCCn2cnc3cc(C4=CCCCO4)c(F)cc3c2=O)COC(F)F)c1C(F)(F)F [Example 398, (R)-3-(5-(difluoromethoxy)-4-((6-oxo-5-(trifluoromethyl)-1,6-dihydropyridazin-4-yl)amino)pentyl)-7-(3,4-dihydro-2H-pyran-6-yl)-6-fluoroquinazolin-4(3H)-one] | 424 |
| NC1(c2cnc(-c3cc4ccn(C[C@@H]5CCC[C@H](Nc6cn[nH]c(=O)c6C(F)(F)F)C5)c(=O)c4cc3F)cn2)COC1 [Example 275, 6-(5-(3-aminooxetan-3-yl)pyrazin-2-yl)-7-fluoro-2-(((1R,3S)-3-((6-oxo-5-(trifluoromethyl)-1,6-dihydropyridazin-4-yl)amino)cyclohexyl)methyl)isoquinolin-1(2H)-one] | 200 |
| C[C@@H](CCCn1ccc2cc(-c3ccc(C(F)(F)F)cn3)ccc2c1=O)Nc1cn[nH]c(=O)c1C(F)(F)F (single isomer, unassigned) [Example 3] | 108 |
| C[C@@H](CCCn1ccc2cc(-c3ncnc(N)n3)c(F)cc2c1=O)Nc1cn[nH]c(=O)c1C(F)(F)F [Example 365, (S)-6-(4-amino-1,3,5-triazin-2-yl)-7-fluoro-2-(4-((6-oxo-5-(trifluoromethyl)-1,6-dihydropyridazin-4-yl)amino)pentyl)isoquinolin-1(2H)-one] | 55.8 |

Now those with a lower EC50, led by results:

| EC50 [nM] | Compound |
| --- | --- |
| 28.8 | C[C@@H](CCCn1cnc2cc(-c3ccc(Cl)c(N)n3)c(F)cc2c1=O)Nc1cn[nH]c(=O)c1C(F)(F)F [Example 294, (S)-7-(6-amino-5-chloropyridin-2-yl)-6-fluoro-3-(4-((6-oxo-5-(trifluoromethyl)-1,6-dihydropyridazin-4-yl)amino)pentyl)quinazolin-4(3H)-one] |
| 16.2 | Nc1nc(-c2cc3ccn(C[C@@H]4CCC[C@H](Nc5cn[nH]c(=O)c5C(F)(F)F)C4)c(=O)c3c(F)c2F)ccc1C(F)(F)F [Example 252, 6-(6-amino-5-(trifluoromethyl)pyridin-2-yl)-7,8-difluoro-2-(((1R,3S)-3-((6-oxo-5-(trifluoromethyl)-1,6-dihydropyridazin-4-yl)amino)cyclohexyl)methyl)isoquinolin-1(2H)-one] |
| 12.2 | O=c1[nH]ncc(N[C@H]2CCC[C@@H](Cn3cc(Br)c4cc(-c5ncc(C(F)(F)F)cn5)c(F)cc4c3=O)C2)c1C(F)(F)F [Example 459, 4-bromo-7-fluoro-2-(((1R,3S)-3-((6-oxo-5-(trifluoromethyl)-1,6-dihydropyridazin-4-yl)amino)cyclohexyl)methyl)-6-(5-(trifluoromethyl)pyrimidin-2-yl)isoquinolin-1(2H)-one] |
| 10.9 | COc1cnc(-c2cc3ccn(CCCC4CCN4c4cn[nH]c(=O)c4C(F)(F)F)c(=O)c3cc2F)nc1N (stereo not drawn) [Example 153, 6-(4-amino-5-methoxy-pyrimidin-2-yl)-7-fluoro-2-[3-[1-[6-oxo-5-(trifluoromethyl)-1H-pyridazin-4-yl]azetidin-2-yl]propyl]isoquinolin-1-one] |
| 9.84 | C[C@@H](CCCn1ccc2cc(-c3ncc4c(n3)NCCO4)c(F)cc2c1=O)Nc1cn[nH]c(=O)c1C(F)(F)F [Example 118, 6-(7,8-dihydro-6H-pyrimido[5,4-b] [1,4]oxazin-2-yl)-7-fluoro-2-[(4S)-4-[[6-oxo-5-(trifluoromethyl)-1H-pyridazin-4-yl]amino]pentyl]isoquinolin-1-one] |
| 7.35 | Nc1nc(-c2cc3ccn(CCC[C@H](COC(F)F)Nc4cn[nH]c(=O)c4C(F)(F)F)c(=O)c3cc2F)ncc1OC(F)F [Example 369, (R)-6-(4-amino-5-(difluoromethoxy)pyrimidin-2-yl)-2-(5-(difluoromethoxy)-4-((6-oxo-5-(trifluoromethyl)-1,6-dihydropyridazin-4-yl)amino)pentyl)-7-fluoroisoquinolin-1(2H)-one] |
| 6.52 | O=c1[nH]ncc(N[C@H](CCCn2ccc3cc(-c4ncc(C(F)(F)F)cn4)c(F)cc3c2=O)CCOC(F)F)c1C(F)(F)F [Example 466, 2-[(4R)-6-(difluoromethoxy)-4-[[6-oxo-5-(trifluoromethyl)-1H-pyridazin-4-yl]amino]hexyl]-7-fluoro-6-[5-(trifluoromethyl)pyrimidin-2-yl]isoquinolin-1-one] |
| 5.94 | CC[C@@H](CCCn1ccc2cc(-c3ncc(C(F)(F)F)c(N)n3)c(F)cc2c1=O)Nc1cn[nH]c(=O)c1C(F)(F)F [Example 71, 6-[4-amino-5-(trifluoromethyl)pyrimidin-2-yl]-7-fluoro-2-[(4S)-4-[[6-oxo-5-(trifluoromethyl)-1H-pyridazin-4-yl]amino]hexyl]isoquinolin-1-one] |
| 5.28 | C[C@@H](CCCn1ccc2cc(-c3ccc(Cl)c(N)n3)c(F)cc2c1=O)Nc1cn[nH]c(=O)c1C(F)(F)F [Example 293, (S)-6-(6-amino-5-chloropyridin-2-yl)-7-fluoro-2-(4-((6-oxo-5-(trifluoromethyl)-1,6-dihydropyridazin-4-yl)amino)pentyl)isoquinolin-1(2H)-one] |
| 3.05 | Cc1nc(-c2cc3ccn(CCC[C@H](C)Nc4cn[nH]c(=O)c4C(F)(F)F)c(=O)c3cc2F)nc(N)c1C(F)(F)F [Example 327, (S)-6-(4-amino-6-methyl-5-(trifluoromethyl)pyrimidin-2-yl)-7-fluoro-2-(4-((6-oxo-5-(trifluoromethyl)-1,6-dihydropyridazin-4-yl)amino)pentyl)isoquinolin-1(2H)-one] |
| 2.22 | C[C@@H](CCCn1ccc2cc(-c3ncc(C4CC4)c(N)n3)c(F)cc2c1=O)Nc1cn[nH]c(=O)c1C(F)(F)F [Example 107, 6-(4-amino-5-cyclopropyl-pyrimidin-2-yl)-7-fluoro-2-[(4S)-4-[[6-oxo-5-(trifluoromethyl)-1H-pyridazin-4-yl]amino]pentyl]isoquinolin-1-one] |
